Experimental findings from patent US8389541B2, “Inhibitors of protein tyrosine kinase activity” (MethylGene Inc., priority 2007, dated 2013) are described below.

Each structure is given as a SMILES string. Where two headings read alike, the source gives them in different places.

For experiment [1], the system named is SKLMS40 tumor. Briefly: In vivo solid tumor disease model, SKLMS40. Further details: species or system mice. The settings on record: Mus musculus, po, SKLMS40, 20 mg/kg orally daily, read-out: Tumor Growth Inhibition (%). The text has this: (§1) This test measures the capacity of compounds to inhibit solid tumor growth.
(§2) Tumor xenografts are established in the flank of female athymic CD1 mice (Charles River Inc.), by subcutaneous injection of 1×106 U87, A431 or SKLMS cells/mouse. Once established, tumors are then serially passaged s.c. in nude mice hosts. Tumor fragments from these host animals are used in subsequent compound evaluation experiments. For compound evaluation experiments female nude mice weighing approximately 20 g are implanted s.c. by surgical implantation with tumor fragments of ˜30 mg from donor tumors. When the tumors are approximately 100 mm3 in size (˜7-10 days following implantation), the animals are randomized and separated into treatment and control groups. Each group contains 6-8 tumor-bearing mice, each of which is ear-tagged and followed individually throughout the experiment.
(§3) Mice are weighed and tumor measurements are taken by calipers three times weekly, starting on Day 1. These tumor measurements are converted to tumor volume by the well-known formula (L+W/4)3 4/3π. The experiment is terminated when the control tumors reach a size of approximately 1500 mm^3. In this model, the change in mean tumor volume for a compound treated group/the change in mean tumor volume of the control group (non-treated or vehicle treated)×100 (ΔT/ΔC) is subtracted from 100 to give the percent tumor growth inhibition (% TGI) for each test compound. In addition to tumor volumes, body weight of animals is monitored twice weekly for up to 3 weeks.

Experiment [2] deals with H1437 tumor. Briefly: In vivo solid tumor disease model, H1437. Further details: species or system mice. The settings on record: H1437, 15 mg/kg orally daily, 16 days.
For experiment [3], the system named is U87MG tumor. The experiment can be described thus: In vivo solid tumor disease model, U87MG. Further details: species or system mice. The settings on record: Mus musculus, U-87 MG, po, 20 mg/kg orally daily, read-out: Tumor Growth Inhibition (%).
Excerpt: as §1, §2, §3

Experiment [4] deals with MKN45 tumor. Briefly: In vivo solid tumor disease model, MKN45. More on the design: species or system mice. The settings on record: Mus musculus, MKN-45, po, MKN45, 20 mg/kg orally daily, read-out: Tumor Growth Inhibition (%).
Experiment [5] has as its system A549 tumor. Briefly: In vivo solid tumor disease model, A549. More on the design: species or system mice. The settings on record: A549, 20 mg/kg orally daily, 12 days.
Experiment [6] relates to MDAMB231 tumor. The experiment can be described thus: In vivo solid tumor disease model, MDAMB231. Further details: species or system mice. The settings on record: MDAMB231, 20 mg/kg orally daily, 13 days.
The test system of experiment [7] is Panc-1 tumor. Briefly: In vivo solid tumor disease model, Panc-1. More on the design: species or system mice. The settings on record: Panc-1, 20 mg/kg orally daily, 13 days.
The subject of experiment [8] is SKLMS tumor. Briefly: In vivo solid tumor disease model, SKLMS. More on the design: species or system mice. The settings on record: 20 mg/kg orally daily, 15 days.
Excerpt: as §1, §2
Mice are weighed and tumor measurements are taken by calipers three times weekly, starting on Day 1. These tumor measurements are converted to tumor volume by the well-known formula (L+W/4)3 4/3π. The experiment is terminated when the control tumors reach a size of approximately 1500 mm^3. […] In addition to tumor volumes, body weight of animals is monitored twice weekly for up to 3 weeks.

The test system of experiment [9] is CNV progression. Briefly: In vivo choroidal neovascularization (CNV) model, laser-induced. The settings on record: Brown-Norway rats, intravitreal injection 30 and/or 100 nmol/eye on Day 1 and/or Day 3 and/or Day 7, CNV area on Day 10. The text has this:
This test measures the capacity of compounds to inhibit CNV progression. CNV is the main cause of severe vision loss in patients suffering from age-related macular degeneration (AMD).
Male Brown-Norway rats (Japan Clea Co., Ltd.) were used in these studies.
Rats were anesthetized by intraperitoneal injection of pentobarbital, and the right pupil was dilated with 0.5% tropicamide and 0.5% phenylephrine hydrochloride. The right eye received 6 laser burns between retinal vessels using a slit lamp delivery system of Green laser Photocoagulator (Nidex Inc., Japan), and microscope slide glass with Heaton™ (AMO Inc) used as a contact lens. The laser power was 100 or 200 mW for 0.1 second and spot diameter was 100 μm. At the time of laser burn, bubble production was observed, which is an indication of rupture of Bruch's membrane which is important for CNV generation.
Rats were divided into the groups based on their body weight using SAS software (SAS institute Japan, R8.1) after laser irradiation (Day 0). After animals were anesthetized, and the right pupil dilated (as above mentioned), the right eye of the animal received the compound or vehicle by intravitreal injection (5 or 10 μL/eye) at doses of 30 and/or 100 nmol/eyeon Day 1 and/or Day 3 and/or Day 7. The compounds were dissolved or suspended in CBS, PBS, or other adequate vehicles before injection.
On Day 10, the animals were anesthetized with ether, and high molecular weight fluorescein isothiocyanate (FITC)-dextran (SIGMA, 2×10^6 MW) was injected via a tail vein (20 mg/rat). About 30 min after FITC-dextran injection, animals were euthanized by ether or carbon dioxide, and the eyes were removed and fixed with 10% formaline neutral buffer solution. After over 1 hour of fixation, RPE-choroid-sclera flat mounts were obtained by removing cornea, lens and retina from the eyeballs. The flat mounts were mounted in 50% glycerol on a microscope slide, and the portion burned by laser was photographed using a fluorescence microscope (Nikon Corporation, excitation filter:465-495 nm, absorption filter:515-555 nm). The CNV area was obtained by measurement of hyper-fluorescence area observed on the photograph using Scion image.
The average CNV area of 6 burns was used as an individual value of CNV area, and the average CNV area of compound treated group was compared with that of the vehicle-treated group. […]

Experiment [10] deals with MNNG HOS tumor. The experiment can be described thus: In vivo solid tumor disease model, MNNG HOS. Further details: species or system mice. The settings on record: 20 mg/kg orally daily, 6 days.
Experiment [11] has as its system HCT116 tumor. Briefly: In vivo solid tumor disease model, HCT116. The settings on record: HCT116, 20 mg/kg orally daily, 13 days. More on the design: species or system mice.

On to `COCCNCc1ccc(-c2cc3nccc(Oc4ccc(NC(=O)C5(C(=O)Nc6ccc(F)cc6)CC5)c(OC)c4)c3s2)nc1`, for which, in [1] (360 h, 15 days), the inhibition in vivo at 20 mg/kg lay in the range of 25 to 50%.

Turning to `COCCNCc1ccc(-c2cc3nccc(Oc4ccc(NC(=S)NC(=O)Cc5ccc(F)cc5)c(F)c4)c3s2)nc1`, the “Tumor Growth Inhibition (%)” value in experiment [2] is reported as “A (tumor growth inhibition of less than 25%)”.

With `COCCNCc1ccc(-c2cc3nccc(Oc4ccc(NC(=O)C5(C(=O)Nc6ccccc6)CC5)cc4F)c3s2)nc1` [drawing 374], the inhibition in vivo at 20 mg/kg is 50 to 75% in experiment [1] (312 h, 13 days); ≥ 75% in experiment [3] (288 h, 12 days); ≥ 75% in experiment [4] (312 h, 13 days). Further, in experiment [5], the “Tumor Growth Inhibition (%)” value was “C (tumor growth inhibition of ≧50% but <75%)”.

For `COCCNCc1ccc(-c2cc3nccc(Oc4ccc(NC(=O)C5(C(=O)Nc6ccccc6)CC5)cc4F)c3s2)o1` [drawing 368], the inhibition in vivo at 20 mg/kg in experiment [1] (312 h, 13 days) lay within 50 to 75%.

Regarding `COCCNCc1ccc(-c2cc3nccc(Oc4ccc(NC(=O)C5(C(=O)Nc6ccc(F)cc6)CC5)cc4F)c3s2)nc1` [drawing 376], the inhibition in vivo at 20 mg/kg was ≥ 75% in experiment [1] (312 h, 13 days) and ≥ 75% in experiment [3] (288 h, 12 days). Besides, in experiment [6], the “Tumor Growth Inhibition (%)” value was “D D D (tumor growth inhibition of ≧75%)”.

Take `COCCNCc1ccc(-c2cc3nccc(Oc4ccc(NC(=O)Nc5coc(C)c5)cc4F)c3s2)nc1`: in experiment [3] (312 h, 13 days), the inhibition in vivo at 20 mg/kg is ≥ 75%. The “Tumor Growth Inhibition (%)” value in [7] and in experiment [8] was “D D D (tumor growth inhibition of ≧75%)” throughout.

For the compound `CS(=O)(=O)CCNCc1ccc(-c2cc3nccc(Oc4ccc(NC(=O)C5(C(=O)Nc6ccccc6)CC5)cc4F)c3s2)cc1` [drawing 370], the inhibition in vivo at 20 mg/kg in [3] (240 h, 10 days) was 50 to 75%.

Regarding `COCCNCc1ccc(-c2cc3nccc(Oc4ccc(NC(=O)CC(=O)N(C)c5ccccc5)cc4F)c3s2)nc1` [drawing 373], the inhibition in vivo at 20 mg/kg was < 25% in [1] (312 h, 13 days); 25 to 50% in experiment [3] (288 h, 12 days); 50 to 75% in experiment [4] (312 h, 13 days). In addition, the “Tumor Growth Inhibition (%)” value in experiment [5] is listed as “C (tumor growth inhibition of ≧50% but <75%)”.

Consider `COCCNCCn1cc(-c2cc3nccc(Oc4ccc(NC(=S)NC(=O)Cc5ccccc5)cc4F)c3s2)cn1` [drawing 367], for which, in [3] (240 h, 10 days), the inhibition in vivo at 20 mg/kg fell in the range of 25 to 50%.

Regarding `COCCNCc1ccc(-c2cc3nccc(Oc4ccc(NC(=S)NC(=O)Cc5ccc(F)cc5)c(OC)c4)c3s2)nc1`, the inhibition in vivo at 20 mg/kg in experiment [1] (360 h, 15 days) lay in the range of 25 to 50%.

In the case of `COCCNCc1ccc(-c2cc3nccc(Oc4ccc(NC(=O)NNC(=O)c5ccccc5)cc4F)c3s2)nc1`, in experiment [7], the “Tumor Growth Inhibition (%)” value was “A (tumor growth inhibition of less than 25%)”.

For the compound `COCCNCc1ccc(-c2cc3nccc(Oc4ccc(NC(=O)Nc5cc(C(F)(F)F)ccc5F)cc4F)c3s2)nc1` [146(253), 1-(3-fluoro-4-(2-(5-((2-methoxyethylamino)methyl)pyridin-2-yl)thieno[3,2-b]pyridin-7-yloxy)phenyl)-3-(2-fluoro-5-(trifluoromethyl)phenyl)urea], the “% Inhibition of CNV Progression” value in experiment [9] is reported as “A (greater than or equal to 30% inhibition)”.

Regarding `COCCNCc1cnc(-c2cc3nccc(Oc4ccc(NC(=S)NC(=O)Cc5ccccc5)cc4F)c3s2)n1C` [drawing 371], the inhibition in vivo at 20 mg/kg is < 25% in experiment [1] (312 h, 13 days) and 50 to 75% in experiment [4] (312 h, 13 days). In addition, the “Tumor Growth Inhibition (%)” value in [5] is reported as “B (tumor growth inhibition of ≧25% but <50%)”.

For `COCCNCc1cccc(-c2cc3nccc(Oc4ccc(NC(=O)Nc5cc(C)on5)cc4F)c3s2)n1` [162(269), 1-(3-fluoro-4-(2-(6-((2-methoxyethylamino)methyl)pyridin-2-yl)thieno[3,2-b]pyridin-7-yloxy)phenyl)-3-(5-methylisoxazol-3-yl)urea], in experiment [9], the “% Inhibition of CNV Progression” value is “A (greater than or equal to 30% inhibition)”.

For `COCCNCc1ccc(-c2cc3nccc(Oc4ccc(NC(=O)CC(=O)N(C)c5ccc(F)cc5)cc4F)c3s2)nc1` [drawing 375], in experiment [4] (312 h, 13 days), the inhibition in vivo at 20 mg/kg was in the range of 25 to 50%. Also, the “Tumor Growth Inhibition (%)” value in experiment [5] is given as “A (tumor growth inhibition of less than 25%)”.

Turning to `COCCNCc1cccc(-c2cc3nccc(Oc4ccc(NC(=S)NC(=O)Cc5ccc(F)cc5)cc4F)c3s2)c1` [drawing 360], the inhibition in vivo at 20 mg/kg in experiment [4] (168 h, 7 days) was in the range of 50 to 75%. Further, the “Tumor Growth Inhibition (%)” value in experiment [10] is reported as “A (tumor growth inhibition of less than 25%)”.

As to `COCCNCc1cnc(-c2cc3nccc(Oc4ccc(NC(=O)C5(C(=O)Nc6ccc(F)cc6)CC5)cc4F)c3s2)n1C` [163(270), N-(3-fluoro-4-(2-(5-((2-methoxyethylamino)methyl)-1-methyl-1H-imidazol-2-yl)thieno[3,2-b]pyridin-7-yloxy)phenyl)-N-(4-fluorophenyl)cyclopropane-1,1-dicarboxamide], the “% Inhibition of CNV Progression” value in experiment [9] was “A (greater than or equal to 30% inhibition)”.

For the compound `COCCNCCn1cnc(-c2cc3nccc(Oc4ccc(NC(=S)NC(=O)Cc5ccc(F)cc5)cc4F)c3s2)c1` [drawing 366], the inhibition in vivo at 20 mg/kg in experiment [3] (288 h, 12 days) is < 25%.

As to `COCCNCc1ccc(-c2cc3nccc(Oc4ccc(NC(=O)Nc5cc(C)on5)c(OC)c4)c3s2)nc1`, the inhibition in vivo at 20 mg/kg in experiment [1] (360 h, 15 days) was ≥ 75%.

As to `COCCNCc1ccc(-c2cc3nccc(Oc4ccc(NC(=O)C5(C(=O)Nc6ccc(F)cc6)CC5)cc4F)c3s2)o1`, the “Tumor Growth Inhibition (%)” value in [7] was “D (tumor growth inhibition of ≧75%)”.

Regarding `COCCNCc1ccc(-c2cc3nccc(Oc4ccc(NC(=O)Nc5cc(C(C)(C)C)on5)cc4F)c3s2)nc1` [drawing 379], the “Tumor Growth Inhibition (%)” value in experiment [11] is given as “C (tumor growth inhibition of ≧50% but <75%)”.

As for `COCCNCc1cccc(-c2cc3nccc(Oc4ccc(NC(=O)C5(C(=O)Nc6ccc(F)cc6)CC5)cc4F)c3s2)n1`, the inhibition in vivo at 20 mg/kg in experiment [3] (312 h, 13 days) is ≥ 75%.

Take `COCCNCc1cnc(-c2cc3nccc(Oc4ccc(NC(=O)CC(=O)N(C)c5ccccc5)cc4F)c3s2)n1C` [14(50), N^1-(3-Fluoro-4-(2-(5-((2-methoxyethylamino)methyl)-1-methyl-1H-imidazol-2-yl)thieno[3,2-b]pyridin-7-yloxy)phenyl)-N3-methyl-N^3-phenylmalonamide]: in experiment [9], the “% Inhibition of CNV Progression” value is reported as “B (≧10% to <30% inhibition)”.
